From patent US20110158947A1, “SULFONYLUREA RECEPTOR AND MEANS FOR TREATING ISCHAEMIA” (priority 2008, published 2011)

Columns and labels:
H9C2 cells = experiment: Cell survival assay (Multitox-Fluor) under DNP metabolic stress; format: cell-based, rat; details: control (GFP-infected) H9C2 cells, DNP 10 mM, n=14
Description: H9C2 cells Rat embryonic heart H9c2 cells (ECACC, Salisbury, UK) were cultured in a tissue flask (at 5% CO2) containing Dulbecco's modified Eagle's medium supplemented with 10% fetal calf serum and 2 mM glutamine. For electrophysiological experiments, the cells were plated on a 35×10-mm culture dish containing 25-mm glass cover-slips. The cells were cultured in incubators (Galaxy, oxygen control model, RS Biotech, Irvine, UK). […] The recombinant SUR2A adenovirus (AV-SUR2A) was generated using the AdEasy XL Adenoviral Vector System (Stratagene). SUR2A gene was cloned into a shuttle vector pShuttle-CMV by PCR using the following primers containing restrict enzyme sites Bgl II/Xho I, sense, 5′-GCAGATCT GGCAGGCTGTTGGTAGCTCA-3′, antisense, 5′-GCCTCGAG CTACTTGTTGGTCATCACCA-3. […] The virus titer is determined using QuickTiter Adenovirus Titer Immunoassay Kit (Cell Biolabs, Inc) according to manufacturer's instructions. […]
The survival of H9C2 cells were assayed using Multitox-Fluor Multiplex Cytotoxicity Assay (Promega). […] Following 30 min-long incubation at 37° C., plates were measured using 1420 Multibabel Counter (Victor) plate reader, with excitation at 370 nm and emissions of 480 nm. The percentage of live cells was calculated based on the intensity of fluorescence according to the manufacturer instructions.

SUR2A mRNA = experiment: Real time RT-PCR of myocardial SUR2A mRNA in mice on nicotinamide-rich diet; format: in vivo; details: n=6
Source text: Real time RT-PCR Total RNA was extracted from cardiac ventricular tissue of transgenic and wild type mice using TRIZOL reagent (Invitrogen, Paisley, UK) according to the manufacturer's recommendations. Extracted RNA was further purified with RNeasy Mini Kit (Qiagen, Crawley, UK) according to the manufacturer's instruction. The specific primers for mouse SUR2A, Kir6.2, Kir6.1, SUR1 and SUR2B (designed to amplify SUR2B and natively present SUR2A) were designed as follows: For SUR2A: sense, […], antisense, […]; for Kir6.2: sense; […], antisense, […]; for Kir6.1: sense, 5′-[…]-3, antisense, 5-[…]-3′; for SUR1: sense, 5′-GGAAGGACTCACCACCATC-3′, antisense, 5′-GAGACCATCAAGGCGTAGG-3′; for SUR2B: sense, 5′-GATGCCACTGTCACCGAAG-3′, antisense, 5-[…]-3′. The real time RT-PCR was performed as described in ref. 14.
Nicotinamide was administered orally, i.e. as a dietary supplement. Mice were fed with nicotinamide-rich diet (ad libidum; 500 mg of nicotinamide per 1 kg of food) for 3 weeks. Estimated daily intake was 2.5 mg. For some in vitro experiments, cardiac cells were incubated for 24 hours in a DMEM medium containing 10% fetal calf serum, 2 mM glutamine and 20 mM NAD or NADH.
All experiments have been done on male mice. […] After the test, mice were sacrificed, hearts harvested and SUR2A mRNA levels measured. […]

male mice = experiment: Treadmill endurance test; format: in vivo; details: one week, n=6
Description: All experiments have been done on male mice. Mice were on RM1 ad libidum diet (SDS, UK) and RM1 diet supplemented with nicotinamide (0.1, 0.5, 2.5, 12.5 g of nicotinamide per kg of diet which would lead to daily intake of 0.04 mg of nicotinamide in control diet and 0.4 mg, 2 mg, 10 mg and 50 mg in nicotinamide-rich diets). All mice were of similar age and weight. Mice were on these diets for a week. To assess physical endurance in these mice, we have used treadmill endurance test. A six lane treadmill (Columbus Instruments, Columbus, Ohio) was used to perform treadmill tests. The exercise-induced stress protocol consisted of a step-wise increase in velocity at constant incline. Before the experiments, animals were acclimatized to the treadmill for 30 minutes; 10 minutes at 0 m/min, 10 minutes at 3 m/min followed by 10 minutes at 6 m/min two days prior to the treadmill endurance test. The treadmill endurance test consisted of a step-wise increase in velocity over time at constant incline. The animal was made to run at 3, 5, 8 (all at m/min) for 3 min intervals followed by 9, 10, 11, 12, 13, 14, 15 (all at m/min) for 5 min intervals and then at a constant velocity of 16 m/min until exhaustion. After the test, mice were sacrificed, hearts harvested and SUR2A mRNA levels measured. More specifically, total RNA was extracted from cardiac ventricular tissue of transgenic and wild type mice using TRIZOL reagent (Invitrogen, Paisley, UK) according to the manufacturer's recommendations. Extracted RNA was further purified with RNeasy Mini Kit (Qiagen, Crawley, UK) according to the manufacturer's instruction. The for mouse SUR2A were designed as follows: sense, […], antisense, […]. The reverse transcription (RT) reaction was carried out with ImProm-II Reverse Transcriptase (Promega, Southampton, UK). […] Efficiency is evaluated by the slope of the regression curve obtained with several dilutions of the cDNA template. […] Threshold cycle values, PCR efficiency (examined by serially diluting the template cDNA and performing PCR under these conditions) and PCR specificity (by constructing the melting curve) were determined by the same software. […] The relative expression ratio(R) of a gene encoding KATP channel subunit is calculated using equation R=(EK)^ΔCPk^(CD-ND)/(ER)^ΔCPR^(CD-ND) where EK is the real time PCR efficiency of SUR2A gene transcript, ER is the real time PCR efficiency of GAPDH gene, ΔCPK is the crossing point deviation of control diet-nicotinamide diet of SUR2A gene transcript while ΔCPR is the crossing point deviation of control diet-nicotinamide diet of GAPDH gene transcript.

cardiomyocytes = experiment: Intracellular Ca2+ (Fluo-3) in cardiomyocytes exposed to isoprenaline; format: cell-based, mouse; details: 100 μM, n=6
Source text: Ventricular cardiomyocytes were dissociated from the mouse using an established enzymatic procedure. Mitochondrial membrane potential was monitored in cells exposed to hypoxia as described. To measure the mitochondrial membrane potential cells were loaded with JC-1 according to the manufacturer's instructions (Invitrogen, Paisley, UK) and continously monitored with LSM-510. Fluorescence was imaged at 488 nm excitation wavelength and emission was captured at 530 and 590 nm for green and red channels respectively; the JC-1 ratio refers always to green/red ratio. The moment of cell death was defined as the point when the cell has become rounded (ratio of diameters<2). In addition to mitochondrial membrane potential, intracellular Ca^2+ levels were also measured using Fluo-3, Ca^2+-sensitive dye [described in 11-13].

O=[N+]([O-])c1ccc(O)c([N+](=O)[O-])c1 [DNP]
cells that survived DNP (H9C2 cells): 43.3±1.8%

NC(=O)c1cccnc1 [nicotinamide]
threshold cycle, SUR2A mRNA in the heart (SUR2A mRNA; 0.1 g/kg nicotinamide-rich diet, one week, after treadmill test): 21.8±0.8 | threshold cycle, SUR2A mRNA in hearts (SUR2A mRNA; nicotinamide-rich diet, 500 mg per 1 kg of food, 3 weeks, lower cycle = more mRNA): 23.57±1.47 | time on treadmill (male mice; 0.1 g/kg nicotinamide in diet): 144.0 ± 14.9 min | time on treadmill (male mice; 0.5 g/kg nicotinamide in diet): 95.3 ± 18.1 min | time on treadmill (male mice; 2.5 g/kg nicotinamide in diet): 103.7 ± 20.4 min | time on treadmill (male mice; 12.5 g/kg nicotinamide in diet): 88.2 ± 12.5 min

CC(C)NCC(O)c1ccc(O)c(O)c1 (stereo not drawn) [isoprenaline]
relative fluo-3 fluorescence (calcium levels) (cardiomyocytes; cardiomyocytes from transgenic SUR2A mice): 78±16.6 | relative fluo-3 fluorescence (calcium levels) (cardiomyocytes; cardiomyocytes from wild type mice): 127.2±13.8
